Experimental data from patent US10590086B2, “Pharmaceutical compound” (IOmet Pharma Ltd., priority 2014, dated 2020).

Key:
[1] = target: TDO (Homo sapiens, UniProt P48775); assay: A172 kynurenine cell-based assay; set-up: This assay utilised cancer cells which expressed either TDO or IDO; endogenous in cells; host or cells: A172 (human glioblastoma); conditions: A172 human glioblastoma cells, 48 hours, 500 μM L-tryptophan; read-out: A172 Kynurenine cell based assay pIC50 (converted)
Description: (§1) Exemplary compounds of the invention were prepared, and tested to determine their effect as TDO and/or IDO inhibitors. Two different assays were employed: 1. a cell-based assay for detecting the effect of test compounds on kynurenine production in two different cancer cell types. This assay utilised cancer cells which expressed either TDO or IDO and as such was used as a means of testing compound activity at these two enzymes in a cell-based context. 2. a TDO and IDO biochemical coupled assay which utilised recombinantly produced and purified TDO and IDO enzymes in combination with the enzyme formamidase. This coupled enzyme system allowed conversion of N-formylkynurenine produced by TDO or IDO activity to kynurenine which was then quantified by fluorescence following addition of Erhlich's Reagent The protocols for these are set out below.
(§2) Cell Based Assay for Detection of Kynurenine Produced by TDO and/or IDO
(§3) A172 (human glioblastoma) and SKOV3 (human ovarian adenocarcinoma) cells were seeded in a 96 well plate at 30,000 or 40,000 cells per well respectively in phenol red-free RPMI supplemented with 10% FCS, 2 mM L-glutamine and 500 μM L-tryptophan. IDO expression was induced in the SKOV3 cells by the addition of 500 ng/ml IFN-γ. Cells were incubated at 37° C. with or without the addition of test compound. After 48 hours, the cells were removed by centrifugation and Erhlich's reagent was added to the supernatant. The Erhlich's reagent was incubated for 5 minutes before the absorbance was read at 490 nm.

[2] = target: IDO (Homo sapiens, UniProt P14902); assay: SKOV3 kynurenine cell-based assay (IDO induced by IFN-γ); set-up: IDO expression was induced in the SKOV3 cells by the addition of 500 ng/ml IFN-γ; endogenous in cells; host or cells: SKOV3 (human ovarian adenocarcinoma), induced with IFN-γ; conditions: SKOV3 human ovarian adenocarcinoma cells, 500 ng/ml IFN-γ, 48 hours, 500 μM L-tryptophan; read-out: SKOV3 Kynurenine cell based assay pIC50 (converted)
Description: as §1, §2, §3

Sequence of TDO (P48775 whole entry): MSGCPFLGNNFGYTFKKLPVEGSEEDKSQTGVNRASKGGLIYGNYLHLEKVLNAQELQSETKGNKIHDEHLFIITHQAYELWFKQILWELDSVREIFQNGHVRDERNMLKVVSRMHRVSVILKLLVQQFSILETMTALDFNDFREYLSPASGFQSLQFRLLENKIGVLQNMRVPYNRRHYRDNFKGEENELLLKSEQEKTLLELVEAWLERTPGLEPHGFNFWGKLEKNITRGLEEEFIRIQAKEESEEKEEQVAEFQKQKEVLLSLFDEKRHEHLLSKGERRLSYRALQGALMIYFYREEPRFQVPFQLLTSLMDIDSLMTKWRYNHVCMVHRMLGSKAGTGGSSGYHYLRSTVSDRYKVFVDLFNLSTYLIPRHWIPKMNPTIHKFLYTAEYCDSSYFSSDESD
Sequence of IDO (P14902 whole entry): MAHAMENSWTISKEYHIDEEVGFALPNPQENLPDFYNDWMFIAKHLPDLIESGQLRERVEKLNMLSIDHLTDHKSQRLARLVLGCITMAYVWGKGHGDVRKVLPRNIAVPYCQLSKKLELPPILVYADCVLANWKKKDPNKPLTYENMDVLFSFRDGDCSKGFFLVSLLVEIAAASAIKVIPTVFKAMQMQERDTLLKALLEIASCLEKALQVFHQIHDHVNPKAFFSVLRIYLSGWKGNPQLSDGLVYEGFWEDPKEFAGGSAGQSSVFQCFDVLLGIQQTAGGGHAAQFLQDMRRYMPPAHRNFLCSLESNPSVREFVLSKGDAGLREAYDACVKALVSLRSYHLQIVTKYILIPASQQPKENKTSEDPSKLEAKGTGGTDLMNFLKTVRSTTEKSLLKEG

IC50 [1] [µM]	IC50 [2] [µM]	Compound
3.24 to 31.6	3.24 to 31.6	NS(=O)(=O)N1CCN(c2cccc3[nH]ncc23)CC1 [Compound 20]
3.24 to 31.6	32.4 to 100	CNS(=O)(=O)N1CCN(c2cccc3[nH]ncc23)CC1 [Compound 24]
3.24 to 31.6	32.4 to 100	CC(=O)N1CCN(c2cccc3[nH]ncc23)CC1C (stereo not drawn) [Compound 27]
< 3.16	32.4 to 100	Cc1cc(N2CCN(S(C)(=O)=O)CC2)c2cn[nH]c2c1 [Compound 31]
3.24 to 31.6	32.4 to 100	CS(=O)(=O)N1CCN(c2cc(-c3ccccc3)cc3[nH]ncc23)CC1 [Compound 33]
< 3.16	< 3.16	CC(=O)N1CCN(c2cc(Cl)cc3[nH]ncc23)CC1(C)C [Compound 46]
< 3.16	3.24 to 31.6	CC(=O)N1CCN(c2cc(C(F)(F)F)cc3[nH]ncc23)CC1 [Compound 48]
3.24 to 31.6	> 100	CC(=O)N1CCN(c2cc(F)cc3[nH]ncc23)CC1 [Compound 51]
< 3.16	3.24 to 31.6	O=S(=O)(C1CC1)N1CCN(c2cc(Cl)cc3[nH]ncc23)CC1 [Compound 54]
< 3.16	3.24 to 31.6	O=S(=O)(C1CCCC1)N1CCN(c2cc(Cl)cc3[nH]ncc23)CC1 [Compound 57]
3.24 to 31.6	> 100	CC(=O)N1CCCN(c2cccc3[nH]ncc23)CC1 [Compound 58]
< 3.16	3.24 to 31.6	CNC(=O)CN1CCN(c2cc(Cl)cc3[nH]ncc23)CC1 [Compound 59]
< 3.16	3.24 to 31.6	CC(C)S(=O)(=O)N1CCN(c2cc(Cl)cc3[nH]ncc23)CC1 [Compound 61]
< 3.16	3.24 to 31.6	CCCS(=O)(=O)N1CCN(c2cc(Cl)cc3[nH]ncc23)CC1 [Compound 63]
< 3.16	3.24 to 31.6	COCCS(=O)(=O)N1CCN(c2cc(Cl)cc3[nH]ncc23)CC1 [Compound 64]
3.24 to 31.6	32.4 to 100	CN(C)C(=O)CN1CCN(c2cc(Cl)cc3[nH]ncc23)CC1 [Compound 65]
3.24 to 31.6	32.4 to 100	CC(C)c1cc(N2CCN(S(C)(=O)=O)CC2)c2cn[nH]c2c1 [Compound 67]

IC50 [1] [µM]	IC50 [2] [µM]	Compound
3.24 to 31.6	> 100	CC(=O)N1CCN(c2cc(C(C)C)cc3[nH]ncc23)CC1 [Compound 68]
3.24 to 31.6	> 100	COc1cc(N2CCN(S(C)(=O)=O)CC2)c2cn[nH]c2c1 [Compound 69]
3.24 to 31.6	> 100	COc1cc(N2CCN(C(C)=O)CC2)c2cn[nH]c2c1 [Compound 70]
< 3.16	3.24 to 31.6	CC(=O)N1CCCN(c2cc(Cl)cc3[nH]ncc23)CC1 [Compound 71]
< 3.16	3.24 to 31.6	CS(=O)(=O)N1CCCN(c2cc(Cl)cc3[nH]ncc23)CC1 [Compound 72]
< 3.16	< 3.16	CC1CN(c2cc(Cl)cc3[nH]ncc23)CCN1S(C)(=O)=O (stereo not drawn) [Compound 73]
< 3.16	3.24 to 31.6	CC(=O)N1CCN(c2cc(Cl)cc3[nH]ncc23)CC1C (stereo not drawn) [Compound 74]
< 3.16	3.24 to 31.6	CC(=O)N1CCN(c2cc(Br)cc3[nH]ncc23)CC1 [Compound 76]
< 3.16	< 3.16	CC(=O)N1CCN(c2cc(C(F)(F)F)cc3[nH]ncc23)CC1(C)C [Compound 79]
< 3.16	3.24 to 31.6	CNC(=O)N1CCN(c2cc(Cl)cc3[nH]ncc23)CC1 [Compound 80]
< 3.16	3.24 to 31.6	NS(=O)(=O)N1CCN(c2cc(Cl)cc3[nH]ncc23)CC1 [Compound 81]
< 3.16	3.24 to 31.6	CN(C)C(=O)N1CCN(c2cc(Cl)cc3[nH]ncc23)CC1 [Compound 82]
< 3.16	3.24 to 31.6	CCC1CN(c2cc(Cl)cc3[nH]ncc23)CCN1S(C)(=O)=O (stereo not drawn) [Compound 83]
< 3.16	3.24 to 31.6	CCC1CN(c2cc(Cl)cc3[nH]ncc23)CCN1C(C)=O (stereo not drawn) [Compound 84]
3.24 to 31.6	3.24 to 31.6	CC(=O)N1CCC(c2cc(C3CC3)cc3[nH]ncc23)CC1 [Compound 86]
< 3.16	3.24 to 31.6	O=C1NCC2CN(c3cc(Cl)cc4[nH]ncc34)CCN12 (stereo not drawn) [Compound 88]

The next lines start with the compound.

Compound	IC50 [1] [µM]	IC50 [2] [µM]
CC(=O)Nc1cccc2[nH]ncc12 [Compound 6]	32.4 to 100	> 100
O=S(=O)(Cc1ccccc1)N1CCN(c2cccc3[nH]ncc23)CC1 [Compound 13]	3.24 to 31.6	32.4 to 100
CCCS(=O)(=O)N1CCN(c2cccc3[nH]ncc23)CC1 [Compound 16]	3.24 to 31.6	32.4 to 100
O=S(=O)(CC(F)(F)F)N1CCN(c2cccc3[nH]ncc23)CC1 [Compound 18]	32.4 to 100	> 100
COCCS(=O)(=O)N1CCN(c2cccc3[nH]ncc23)CC1 [Compound 23]	> 100	32.4 to 100
CC1CN(c2cccc3[nH]ncc23)CCN1S(C)(=O)=O (stereo not drawn) [Compound 29]	3.24 to 31.6	32.4 to 100
CS(=O)(=O)N1CCC(c2cc(-c3ccccc3)cc3[nH]ncc23)CC1 [Compound 32]	3.24 to 31.6	32.4 to 100
Cc1ccc(C2CCN(S(C)(=O)=O)CC2)c2cn[nH]c12 [Compound 39]	> 100	32.4 to 100
CS(=O)(=O)N1CCC(c2ccc(Cl)c3[nH]ncc23)CC1 [Compound 42]	32.4 to 100	3.24 to 31.6
CS(=O)(=O)N1CCN(c2ccc3[nH]ncc3c2)CC1 [Compound 43]	3.24 to 31.6	32.4 to 100
CN1CC2CN(c3cccc4[nH]ncc34)CCN2C1=O (stereo not drawn) [Compound 47]	3.24 to 31.6	> 100
CS(=O)(=O)N1CCN(c2cc(C(F)(F)F)cc3[nH]ncc23)CC1 [Compound 49]	< 3.16	3.24 to 31.6
c1ccc(CCNc2cccc3[nH]ncc23)cc1 [Compound 50]	32.4 to 100	32.4 to 100
CS(=O)(=O)N1CCC(Oc2cccc3[nH]ncc23)CC1 [Compound 52]	3.24 to 31.6	32.4 to 100
CC(=O)N1CCC(Oc2cccc3[nH]ncc23)CC1 [Compound 53]	3.24 to 31.6	< 3.16
O=S(=O)(c1ccccc1)N1CCN(c2cc(Cl)cc3[nH]ncc23)CC1 [Compound 55]	< 3.16	3.24 to 31.6
O=S(=O)(Cc1ccccc1)N1CCN(c2cc(Cl)cc3[nH]ncc23)CC1 [Compound 56]	< 3.16	3.24 to 31.6
CS(=O)(=O)N1CCCN(c2cccc3[nH]ncc23)CC1 [Compound 60]	3.24 to 31.6	> 100
CN(CCNc1cccc2[nH]ncc12)S(C)(=O)=O [Compound 62]	32.4 to 100	> 100
Cc1n[nH]c2cc(Cl)cc(N3CCN(S(C)(=O)=O)CC3)c12 [Compound 66]	3.24 to 31.6	3.24 to 31.6
CS(=O)(=O)N1CCC(Nc2cccc3[nH]ncc23)CC1 [Compound 75]	32.4 to 100	> 100
CS(=O)(=O)N1CC=C(c2cc(Cl)cc3[nH]ncc23)CC1 [Compound 77]	< 3.16	3.24 to 31.6
OCCOc1cc(Cl)cc2[nH]ncc12 [Compound 85]	3.24 to 31.6	32.4 to 100
CS(=O)(=O)N1CCC(c2cc(C3CC3)cc3[nH]ncc23)CC1 [Compound 87]	< 3.16	3.24 to 31.6
